Results from article PMC12527977, “Discovery of a novel tetrapeptide as glucose homeostasis modulator with bifunctionalities of targeting DPP‐IV and microbiota” (iMeta, 2025).
“And” between values parts separate entries of the source, which are not always exact repeats. Identical values can stand only once.

What was measured:
Assay type in all cases: in vivo, mouse
HFD-fed C57BL/6J mice [1] = assay: HFD-fed mice, TPH/sitagliptin/HSP 8 weeks: FBG, OGTT, fasting insulin, HOMA-IR; set-up: unit not given here; settings: 8 weeks p.o. (Sit 12.5, TPH 80, HSP 320 mg/kg)
Method: (§1) To evaluate the hypoglycaemic activity of TPH, all mice were fed a high-fat diet (HFD, Research Diets, cat# D12492).
Oral glucose tolerance tests (OGTTs) were conducted following a 6-hour fasting period in mice. Blood glucose levels were assessed using a glucometer on tail vein blood samples at 0, 15, 30, 60, and 90 min after oral glucose administration with a dosage of 1.5 g/kg body weight. For insulin tolerance tests (ITTs), mice were intraperitoneal injected with insulin (0.8 U/kg body weight) after 6 h of fasting. […] The levels of active GLP-1, total GLP-1, and insulin were measured using the corresponding kits and normalized to the protein concentration (via a BCA protein assay).

HFD-fed C57BL/6J mice [2] = assay: HFD-fed mice, TPH/sitagliptin/HSP 8 weeks: plasma NEFA, TG, TC, HDL-c, LDL-c; settings: individual animals, n = 6, sheet S1U, listed as Sit
Method: as §1
The levels of plasma total cholesterol (TC), triacylglycerol (TG), high-density lipoprotein cholesterol (HDL-c), low-density lipoprotein cholesterol (LDL-c), nonesterified fatty acid (NEFA), tumour necrosis factor α (TNF α), and interleukin-1β (IL-1β) were determined by commercial kit (Nanjing Jiancheng Bioengineering Institute, Nanjing, China).

[3] = test system: gut microbiota, A. muciniphila; assay: HFD-fed mice, TPH or sitagliptin 8 weeks: gut microbiota (16S rRNA); settings: in words, 8 weeks p.o.
From the text: To evaluate the hypoglycaemic activity of TPH, all mice were fed a high-fat diet (HFD, Research Diets, cat# D12492). […] Raw sequencing data were processed with QIIME2. In brief, the forward and reverse reads each were truncated at 200 bases. Taxonomy was assigned using the Greengenes reference (version 13.8) database. Analyses of alpha diversity (one-way ANOVA followed by Tukey’s post hoc test), beta diversity (weighted UniFrac distance followed by ANOSIM test), and bacterial taxonomic distributions were performed using MicrobiomeAnalyst.

Q: For `N[C@@H](CC(=O)N1CCn2c(nnc2C(F)(F)F)C1)Cc1cc(F)c(F)cc1F` [Sitagliptin], which “AUC of the OGTT” value (HFD-fed C57BL/6J mice [1]; mouse 1 of group) is on record?
A: 27513

Q: What about the “Levels of fasting insulin” value (HFD-fed C57BL/6J mice [1]; mouse 1 of group) of the same compound?
A: 31.21

Q: And the “AUC of the OGTT” value (HFD-fed C57BL/6J mice [1]; mouse 2 of group)?
A: 22668

Q: What about the “Levels of fasting insulin” value (HFD-fed C57BL/6J mice [1]; mouse 2 of group) of the same compound?
A: 34.42

Q: And the “AUC of the OGTT” value (HFD-fed C57BL/6J mice [1]; mouse 3 of group)?
A: 23854.5

Q: What about the “Levels of fasting insulin” value (HFD-fed C57BL/6J mice [1]; mouse 3 of group) of the same compound?
A: 37.914

Q: What about the “AUC of the OGTT” value (HFD-fed C57BL/6J mice [1]; mouse 4 of group) of the same compound?
A: 21897

Q: And the “Levels of fasting insulin” value (HFD-fed C57BL/6J mice [1]; mouse 4 of group)?
A: 32.691

Q: What about the “AUC of the OGTT” value (HFD-fed C57BL/6J mice [1]; mouse 5 of group) of the same compound?
A: 22426.5

Q: What about the “Levels of fasting insulin” value (HFD-fed C57BL/6J mice [1]; mouse 5 of group) of the same compound?
A: 36.21

Q: And the “AUC of the OGTT” value (HFD-fed C57BL/6J mice [1]; mouse 6 of group)?
A: 19386

Q: What about the “Levels of fasting insulin” value (HFD-fed C57BL/6J mice [1]; mouse 6 of group) of the same compound?
A: 32.691

Q: What about the “Plasma HDL-c” value (HFD-fed C57BL/6J mice [2]) of the same compound?
A: 2.289 and 2.058 and 2.182 and 2.361 and 2.149

Q: And the “Abundance of A. muciniphila in the intestine” value [3]?
A: no effect
